The values below come from PubChem BioAssay AID248 (DTP/NCI, 2004).

The structures appear in SMILES notation. Several values for one entry are separate records, joined by “and”; a condition that tells them apart may be missing. Equal entries are not always repeated. Toxic doses and inconclusive results are not listed.

This test relates to L1210 leukemia ip in BDF1 mice, survival T/C. The experiment in a line: NCI In Vivo Anticancer Drug Screen. Data for tumor model L1210 Leukemia (intraperitoneal) in B6D2F1 (BDF1) mice. Conditions: endpoint: mean survival time, higher = longer survival. The method, boiled down: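 Transplantable tumor model; survival measured in treated vs vehicle control mice. Value = treated/control.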

The mark [1] stands for this setting: dose: 100.0 mg/kg/injection, schedule: Q04DX002 (ip), vehicle: Klucel (hydroxypropylcellulose) (HPC).
The mark [2] stands for this setting: dose: 200.0 mg/kg/injection, schedule: Q04DX002 (ip), vehicle: Klucel (hydroxypropylcellulose) (HPC).
Where [3] appears, read: dose: 400.0 mg/kg/injection, schedule: Q04DX002 (ip), vehicle: Klucel (hydroxypropylcellulose) (HPC).
Setting [4] is: dose: 100.0 mg/kg/injection, schedule: Q04DX003 (ip), vehicle: saline with Tween-80.
[5] abbreviates: dose: 50.0 mg/kg/injection, schedule: Q01DX009 (ip), vehicle: Klucel (hydroxypropylcellulose) (HPC).
Setting [6] is: dose: 100.0 mg/kg/injection, schedule: Q01DX009 (ip), vehicle: Klucel (hydroxypropylcellulose) (HPC).
The mark [7] stands for this setting: dose: 200.0 mg/kg/injection, schedule: Q01DX009 (ip), vehicle: Klucel (hydroxypropylcellulose) (HPC).

Turning to `COc1ccc(NC(=O)N(CCCl)N=O)cc1OC`, the T/C reads like this: (dose: 0.5 mg/kg/injection, schedule: Q01DX009 (ip), vehicle: Klucel (hydroxypropylcellulose) (HPC)) 115 % of control; (dose: 1.0 mg/kg/injection, schedule: Q01DX009 (ip), vehicle: Klucel (hydroxypropylcellulose) (HPC)) 123 % of control; (dose: 1.2 mg/kg/injection, schedule: Q01DX009 (ip), vehicle: Klucel (hydroxypropylcellulose) (HPC)) 115 % of control; (dose: 1.8 mg/kg/injection, schedule: Q01DX009 (ip), vehicle: Klucel (hydroxypropylcellulose) (HPC)) 113 % of control; (dose: 2.5 mg/kg/injection, schedule: Q01DX001 (ip), vehicle: carboxymethylcellulose (CMC)) 118 % of control; (dose: 4.0 mg/kg/injection, schedule: Q01DX009 (ip), vehicle: Klucel (hydroxypropylcellulose) (HPC)) 151 % of control and 152 % of control (2×). Also, the T/C (dose: 5.0 mg/kg/injection, schedule: Q01DX001 (ip), vehicle: carboxymethylcellulose (CMC)) is 118 % of control; the T/C (dose: 6.0 mg/kg/injection, schedule: Q01DX009 (ip), vehicle: Klucel (hydroxypropylcellulose) (HPC)) was 165 % of control; the T/C (dose: 6.6 mg/kg/injection, schedule: Q01DX009 (ip), vehicle: carboxymethylcellulose (CMC)) was 206 % of control; the T/C (dose: 9.0 mg/kg/injection, schedule: Q01DX009 (ip), vehicle: Klucel (hydroxypropylcellulose) (HPC)) is 220 % of control; the T/C (dose: 10.0 mg/kg/injection, schedule: Q01DX009 (ip), vehicle: carboxymethylcellulose (CMC)) is 123 % of control; the T/C (dose: 13.0 mg/kg/injection, schedule: Q01DX009 (ip), vehicle: Klucel (hydroxypropylcellulose) (HPC)) was 167 % of control and 190 % of control. Moreover, the T/C runs as follows: (dose: 15.0 mg/kg/injection, schedule: Q01DX001 (ip), vehicle: carboxymethylcellulose (CMC)) 168 % of control; (dose: 15.0 mg/kg/injection, schedule: Q01DX009 (ip), vehicle: carboxymethylcellulose (CMC)) 106 % of control; (dose: 20.0 mg/kg/injection, schedule: Q01DX001 (ip), vehicle: other) 227 % of control; (dose: 20.0 mg/kg/injection, schedule: Q01DX009 (ip), vehicle: Klucel (hydroxypropylcellulose) (HPC)) 92 % of control; (dose: 30.0 mg/kg/injection, schedule: Q01DX001 (ip), vehicle: carboxymethylcellulose (CMC)) 247 % of control; (dose: 30.0 mg/kg/injection, schedule: Q01DX001 (ip), vehicle: other) 206 % of control. The T/C is, setting by setting: (dose: 45.0 mg/kg/injection, schedule: Q01DX001 (ip), vehicle: other) 242 % of control; (dose: 60.0 mg/kg/injection, schedule: Q01DX001 (ip), vehicle: carboxymethylcellulose (CMC)) 193 % of control.

On to `ClC(Cl)(Cl)C1OCCOCCO1`, for which the T/C by setting is: under setting [1], 93 % of control; under setting [2], 97 % of control; under setting [3], 107 % of control.

With `CCN(CC)CCCNC(c1ccc(OC)cc1)C(Cl)(Cl)Cl` (stereo not drawn), the T/C runs as follows: (dose: 75.0 mg/kg/injection, schedule: Q01DX001 (ip), vehicle: saline) 90 % of control; (dose: 150.0 mg/kg/injection, schedule: Q01DX001 (ip), vehicle: saline) 93 % of control.

Regarding `CCc1c(O)c2c(c(O)c1C(C)=O)C(=O)c1c(cc(O)c(C(=O)O)c1C(=O)O)C2=O`, the T/C was 100 % of control under setting [4] and 100 % of control (dose: 200.0 mg/kg/injection, schedule: Q04DX003 (ip), vehicle: saline with Tween-80).

For the molecule `O=C(Nc1ccccc1)Nc1ncn[nH]1`, the T/C is 97 % of control (dose: 75.0 mg/kg/injection, schedule: Q01DX001 (ip), vehicle: carboxymethylcellulose (CMC)); 92 % of control (dose: 150.0 mg/kg/injection, schedule: Q01DX001 (ip), vehicle: carboxymethylcellulose (CMC)); 90 % of control (dose: 300.0 mg/kg/injection, schedule: Q01DX001 (ip), vehicle: carboxymethylcellulose (CMC)).

Take `CSc1ncnc2c1ncn2N(CC1CO1)C(C)=O` (stereo not drawn): the T/C (dose: 100.0 mg/kg/injection, schedule: Q04DX002 (ip), vehicle: saline with Tween-80) was 91 % of control; the T/C (dose: 200.0 mg/kg/injection, schedule: Q04DX002 (ip), vehicle: saline with Tween-80) is 91 % of control; the T/C (dose: 400.0 mg/kg/injection, schedule: Q04DX002 (ip), vehicle: saline with Tween-80) is 95 % of control.

With `CC(=O)OCC1OC(OC(C)C)[CH]([Hg][S]Cc2ccccc2)C(OC(C)=O)C1OC(C)=O` (stereo not drawn), the T/C is, setting by setting: (dose: 0.5 mg/kg/injection, schedule: Q01DX015 (ip), vehicle: carboxymethylcellulose (CMC)) 102 % of control; (dose: 1.0 mg/kg/injection, schedule: Q01DX015 (ip), vehicle: carboxymethylcellulose (CMC)) 98 % of control; (dose: 2.0 mg/kg/injection, schedule: Q01DX015 (ip), vehicle: carboxymethylcellulose (CMC)) 104 % of control; (dose: 4.0 mg/kg/injection, schedule: Q01DX015 (ip), vehicle: carboxymethylcellulose (CMC)) 96 % of control and 108 % of control; (dose: 8.0 mg/kg/injection, schedule: Q01DX015 (ip), vehicle: carboxymethylcellulose (CMC)) 88 % of control.

As to `Cc1cc(S(=O)(=O)O)cc(N)c1N`, the T/C was 105 % of control (dose: 100.0 mg/kg/injection, schedule: Q01DX001 (ip), vehicle: Klucel (hydroxypropylcellulose) (HPC)); 98 % of control (dose: 200.0 mg/kg/injection, schedule: Q01DX001 (ip), vehicle: Klucel (hydroxypropylcellulose) (HPC)); 91 % of control (dose: 400.0 mg/kg/injection, schedule: Q01DX001 (ip), vehicle: Klucel (hydroxypropylcellulose) (HPC)).

Consider `Cc1nc2ccccc2n(O)c1=O`, for which the T/C was 97 % of control under setting [5], 93 % of control under setting [6] and 89 % of control under setting [7].

Consider `CCCCN1C(=O)c2cccnc2C1=O`, for which the T/C (dose: 75.0 mg/kg/injection, schedule: Q04DX003 (ip), vehicle: Klucel (hydroxypropylcellulose) (HPC)) was 102 % of control; the T/C (dose: 100.0 mg/kg/injection, schedule: Q01DX001 (ip), vehicle: saline with Tween-80) is 103 % of control; the T/C under setting [4] is 103 % of control; the T/C (dose: 150.0 mg/kg/injection, schedule: Q04DX003 (ip), vehicle: Klucel (hydroxypropylcellulose) (HPC)) was 96 % of control; the T/C (dose: 200.0 mg/kg/injection, schedule: Q01DX001 (ip), vehicle: saline with Tween-80) was 97 % of control; the T/C (dose: 300.0 mg/kg/injection, schedule: Q04DX003 (ip), vehicle: Klucel (hydroxypropylcellulose) (HPC)) was 95 % of control. Moreover, the T/C reads like this: (dose: 400.0 mg/kg/injection, schedule: Q01DX001 (ip), vehicle: saline with Tween-80) 93 % of control; (dose: 400.0 mg/kg/injection, schedule: Q04DX003 (ip), vehicle: saline with Tween-80) 95 % of control.

For the molecule `CCCCCC[CH2][Sn]([CH2]CCCCCC)([CH2]CCCCCC)[CH2]CCCCCC`, the T/C was 103 % of control under setting [6]; 101 % of control under setting [7]; 101 % of control (dose: 400.0 mg/kg/injection, schedule: Q01DX009 (ip), vehicle: Klucel (hydroxypropylcellulose) (HPC)).

Consider `CC(=S)Nc1ccccc1`, for which the T/C reads like this: (dose: 25.0 mg/kg/injection, schedule: Q01DX009 (ip), vehicle: Klucel (hydroxypropylcellulose) (HPC)) 101 % of control; under setting [5], 104 % of control; under setting [6], 95 % of control.

With `CCOC(=O)C(Cc1ccc(N(CCCl)CCCl)cc1)NC=O` (stereo not drawn), the T/C is 111 % of control (dose: 5.0 mg/kg/injection, schedule: Q01DX Z (ip), vehicle: carboxymethylcellulose (CMC)); 123 % of control (dose: 10.0 mg/kg/injection, schedule: Q01DX Z (ip), vehicle: carboxymethylcellulose (CMC)); 150 % of control (dose: 40.0 mg/kg/injection, schedule: Q01DX Z (ip), vehicle: carboxymethylcellulose (CMC)); 168 % of control (dose: 88.8 mg/kg/injection, schedule: Q01DX001 (ip), vehicle: carboxymethylcellulose (CMC)); 168 % of control (dose: 133.0 mg/kg/injection, schedule: Q01DX001 (ip), vehicle: carboxymethylcellulose (CMC)); 150 % of control and 161 % of control and 170 % of control (dose: 200.0 mg/kg/injection, schedule: Q01DX001 (ip), vehicle: carboxymethylcellulose (CMC)).

Take `O=C(N=Nc1c(O)[nH]c2ccc(Br)cc12)c1ccco1`: the T/C runs as follows: under setting [1], 111 % of control; under setting [2], 95 % of control; under setting [3], 95 % of control.

Turning to `CC1(C)C(=O)C2C=CCC21` (stereo not drawn), the T/C reads like this: (dose: 50.0 mg/kg/injection, schedule: Q01DX009 (ip), vehicle: saline with Tween-80) 91 % of control; (dose: 100.0 mg/kg/injection, schedule: Q01DX009 (ip), vehicle: saline with Tween-80) 98 % of control; (dose: 200.0 mg/kg/injection, schedule: Q01DX009 (ip), vehicle: saline with Tween-80) 95 % of control.

For the molecule `Cc1cccc(C)c1-n1nnnc1N`, the T/C was 105 % of control under setting [5], 119 % of control under setting [6] and 101 % of control under setting [7].
